Results published in patent publication US4177269A, “Novel 17-esters of 17α-hydroxy gestogens, compositions containing such compounds, processes for their preparation and methods of treatment therewith” (Aktiebolaget Leo, priority 1976, dated 1979).

How the values were obtained:
[1] = Hepatome AH 130 tumour growth inhibition in rats; format: in vivo, Sprague-Dawley rats; set-up: ED50: unit not given here; conditions: rat, in vivo, ip, one i.p. injection; for LD50: dose causing 50 percent lethality, column head not given; for selectivity ratio: read-out: T.I. (LD50/ED50)
Description: (§1) LD50 is the dose that causes a 50 percent lethality of the animals, and ED50 is the dose that causes a 50 percent reduction of tumour size.
(§2) The experimental design and the interpretation of the results are in accordance with the standards set by the CCNSC (Cancer Chemotherpy Reports, January 1959 and December 1962).
(§3) Experimental animals: Sprague-Dawley rats.
(§4) Tumour implant: 5 × 10^6 tumour cells i.p.
(§5) Therapy: One injection i.p. on the day following implanta-
(§6) Termination: The animals are killed on the 8th day.
(§7) Evaluation: Weights of tumours of test animals are compared
(§8) with those of control animals.

Hepatome AH 130 = Hepatome AH 130 tumour growth inhibition in rats; format: in vivo, Sprague-Dawley rats; set-up: ED50: unit not given here; conditions: one i.p. injection; for ED50: dose causing 50 percent reduction of tumour size, killed 8th day
Description: as §1, §2, §3, §4, §5, §6, §7, §8

[2] = test system: Ehrlich ascites tumour, ELD hyperdiploid; experiment: Ehrlich ascites tumour, ELD hyperdiploid (46 chromosomes), growth inhibition in mice; format: in vivo, SPF NMRI mice; conditions: one i.p. injection; for antitumour activity: result in words
Description: as §2
Ehrlich ascites tumour, ELD hyperdiploid
Experimental animals: SPF NMRI mice.
Tumour implant: 2 × 10^6 tumour cells i.p.
as §5, §6
Evaluation: Weight of tumours of test animals compared with
those of control animals.

[3] = test system: Walker carcinosarcoma 256; experiment: Walker carcinosarcoma 256 tumour growth inhibition in rats; format: in vivo, Sprague-Dawley rats; set-up: ED50: unit: mg/kg; conditions: daily p.o. for 5 days; for antitumour activity: result in words
Description: as §1, §2
(§9) Walker carcinosarcoma 256.
as §3
(§10) Tumour implant: Tumour pieces with 2-4 mm diameter, sub-
(§11) Therapy: Daily p.o. administration for 5 days starting on
(§12) the day following implantation.
(§13) Termination: The animals are killed on the 9th day.
as §7, §8

[4] = as above; format: in vivo, Sprague-Dawley rats; set-up: ED50: unit: mg/kg; conditions: rat, in vivo, po, daily p.o. for 5 days
Description: as §1, §2, §9, §3, §10, §11, §12, §13, §7, §8

[5] = biological target: T1, rabbit uterus cytosol progesterone receptor (Oryctolagus cuniculus, UniProt P06186); experiment: Relative affinity to rabbit uterus cytosol progesterone receptor (3H-progesterone competition); format: binding; conditions: compared to progesterone; 50% competition with 3H-progesterone; 16-18 hours at 4° C.
T1 construct: One ml portions of the supernatant (rabbit uterus cytosol) were pipetted into small centrifuge tubes of glass; from tissue; host or cells: uterus cytosol (105,000×g supernatant) of female rabbits pretreated with polyestradiol phosphate
T1 sequence (P06186 1-930): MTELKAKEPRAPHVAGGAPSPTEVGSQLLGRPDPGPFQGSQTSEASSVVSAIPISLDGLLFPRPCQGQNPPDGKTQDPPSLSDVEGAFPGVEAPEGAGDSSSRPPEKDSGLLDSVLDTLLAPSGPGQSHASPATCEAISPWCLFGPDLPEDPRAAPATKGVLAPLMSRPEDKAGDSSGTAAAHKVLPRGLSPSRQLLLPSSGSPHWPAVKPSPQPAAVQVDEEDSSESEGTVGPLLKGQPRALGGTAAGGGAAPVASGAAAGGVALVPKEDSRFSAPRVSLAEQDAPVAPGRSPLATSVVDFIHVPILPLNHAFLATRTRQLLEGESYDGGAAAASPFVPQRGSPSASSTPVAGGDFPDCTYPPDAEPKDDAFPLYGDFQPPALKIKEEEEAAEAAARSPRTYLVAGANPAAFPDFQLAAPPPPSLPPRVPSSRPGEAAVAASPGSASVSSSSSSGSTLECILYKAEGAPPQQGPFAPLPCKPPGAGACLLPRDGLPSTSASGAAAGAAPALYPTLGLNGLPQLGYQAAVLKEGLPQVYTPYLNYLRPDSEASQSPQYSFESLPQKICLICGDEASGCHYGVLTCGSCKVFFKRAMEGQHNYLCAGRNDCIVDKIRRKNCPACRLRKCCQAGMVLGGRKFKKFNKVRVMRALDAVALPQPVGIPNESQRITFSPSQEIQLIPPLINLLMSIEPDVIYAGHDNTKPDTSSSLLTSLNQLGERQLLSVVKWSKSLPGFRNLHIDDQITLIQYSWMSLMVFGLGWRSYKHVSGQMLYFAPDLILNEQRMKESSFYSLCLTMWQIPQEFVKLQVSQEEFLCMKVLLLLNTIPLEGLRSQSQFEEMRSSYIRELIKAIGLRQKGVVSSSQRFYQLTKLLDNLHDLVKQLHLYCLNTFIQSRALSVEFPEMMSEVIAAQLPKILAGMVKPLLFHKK
Procedure: This example illustrates the compound's relative affinity to rabbit uterus cytosol progesterone receptor compared with progesterone. The method used for this purpose is a modification of methods already described by Kontula, K. et al. (Acta Endocrinol. 78 (1975) 574) and Terenius, L. (Steroids 23 (1974) 909) among others.
Female rabbits (3-4 pounds) from Knut Larsen, Uddevalla, Sweden, were injected i.m. with 1 mg Estradurin (polyestradiol phosphate, 1 mg/ml saline, AB Leo, Sweden). After one week, the animals were killed and the uteri were immediately removed, chilled and cut free from connective tissues. All the following operations were performed at 0°-4° C. The uteri were cut into small pieces and washed several times with 3 vol. of buffer at pH 7.4 containing 50 MM TRIS-HCl, 1.5 mM EDTA, 3 mM NaN3, 2 mM dithiothreitol, and 25% glycerol (by vol.). The tissue was homogenized in the same buffer (3 vol.) with four 15-s bursts at rheostat setting 36-37 of an Ultra Turrax (Janke and Kunkel KG, Staufen, The Federal Republic of Germany). The homogenate was centifuged in a Sorvall GLC-2 centrifuge for 15 min at 600×g. The supernatanate was recentrifuged at 105,000×g for 60 min in a Beckman ultracentrifuge model LB-65-B with rotor SW 56.
One ml portions of the supernatant (rabbit uterus cytosol) were pipetted into small centrifuge tubes of glass and were kept at -70° C. until used. The protein content was determined by the method of Lowry (J. Biol. Chem. 193 (1951) 265).
10.0 mg of each compound was dissolved in 10.0 ml 99.5% ethanol. 100 μl of this standard solution was diluted to 5.0 ml ethanol/glycerol 1:1 (v/v). The ethanol was evaporated by blowing air at 40° C. on the solution. The volume was then adjusted to 5.0 ml by adding buffer without glycerol.
The compounds were diluted with glycerol/buffer 1:1 to final concentrations between 10^-8 -10^-5 M in total 300 μl incubation media. 100 μl of each compound and of each dilution were incubated in small centrifuge tubes (2 ml) together with 100 μl (10 pg) ^3 H-progesterone (1,2,6,7-3H-progesterone, 47.8 Ci/mMol, The Radiochemical Centre, Amersham, England) and 100 μl cytosol adjusted with buffer to a final concentration of about […]. The incubations were carried out for 16-18 hours at 4° C.
The separation of bound from free radioactivity was carried out at 0° C. using the dextran coated charcoal technique (DCC). To each incubation tube was added 0.5 ml DCC-suspension (0.05% dextran-70, Pharmacia, Uppsala, Sweden and 0.5% Norit A, Sigma, Saint Louis, Missouri, U.S.A.) The tubes were agitated 2-3 times during 10 minutes whereupon they were centrifuged at 100×g for five minutes. The supernatantes were decanted directly into Scintillation vials (polyethene, Packard) containing 10 ml InstaGel (Packard). The radioactivity was counted in a Philip's liquid scintillation spectrometer Model PW 4510/00 with external standard and automatic quenching correction.
To incubation tubes were added 100 μl cytosol, 100 μl ^3 H-progesterone (10 pg) and 100 μl of different dilutions of non-radioactive progesterone in glycerol/buffer 1:1 ranging from 0-10^4 pg/100 μl. The tubes were incubated parallel with the compounds described above. The radioactivity was calculated by substracting the counted radioactivity in the incubation tubes with the radioactivity counted in incubations tubes in which the cytosol was replaced with buffer (100 μl).
The concentration of non-radioactive progesterone [P]i which competes for 50% of bound radioactive progesterone was calculated from the standard curve constructed [B] i/[B] o=0.5 where [B]i is the bound radioactivity at different concentrations of non-radioactive progesterone and [B]o is the bound radioactivity at progesterone concentration zero.
In the same manner, curves were constructed for each compound X and the concentration for each compound which competes for 50% with bound ^3 H-progesterone ([X]50) was calculated. […]

Structure (SMILES) | LD50 [1] [mg/kg] | selectivity ratio [1] | ED50 (Hepatome AH 130) | antitumour activity [2] | antitumour activity [3] | ED50 ([3]; dose causing 50 percent reduction of tumour size, killed 9th day) | LD50 ([4]; dose causing 50 percent lethality) [mg/kg] | selectivity ratio ([4]; read-out: T.I. (LD50/ED50)) | relative binding affinity (RBA) [5] [%] | antitumour activity (Hepatome AH 130; result in words) | Mortality ([2]; 1000 mg/kg) | Tumour weight Treated/Control ([2]; 1000 mg/kg, 8th day) [%]
CC(=O)[C@@]1(OC(=O)COC(=O)CSc2ccc(N(CCCl)CCCl)cc2)CC[C@H]2[C@@H]3CCC4=CC(=O)CC[C@]4(C)[C@H]3CC[C@@]21C [3:5, 17α-/4-(N,N-bis(2-chloroethyl)amino)phenylthioacetoxyacetoxy/pregn-4-ene-3,20-dione] | > 250 | > 5 | 50 | exhibit antitumour activity | exhibit antitumour activity | – | – | – | – | – | – | –
CC(=O)[C@@]1(OC(=O)CCCOC(=O)Cc2ccc(N(CCCl)CCCl)cc2)CC[C@H]2[C@@H]3CCC4=CC(=O)CC[C@]4(C)[C@H]3CC[C@@]21C [3:4, 17α-/4-(4-(N,N-bis(2-chloroethyl)amino)phenylacetoxyy)butanoyloxy/pregn-4-ene-3,20-dione] | 50 | 25 | 2 | exhibit antitumour activity | – | 4 | 80 | 20 | – | – | – | –
CC(=O)[C@@]1(OC(=O)CCCOC(=O)c2ccc(C)c(N(CCCl)CCCl)c2)CC[C@H]2[C@@H]3CCC4=CC(=O)CC[C@]4(C)[C@H]3CC[C@@]21C [7:4, 17α-/4-(3-(N,N-bis(2-chloroethyl)amino)-4-methylbenzoyloxy)butanoyloxy/pregn-4-ene-3,20-dione] | > 250 | > 15 | 16 | exhibit antitumour activity | exhibit antitumour activity | – | – | – | 0.9 | – | – | –
CC(=O)[C@@]1(OC(=O)COC(=O)CCCc2ccc(N(CCCl)CCCl)cc2)CC[C@H]2[C@@H]3C[C@H](C)C4=CC(=O)CC[C@]4(C)[C@H]3CC[C@@]21C [3:16, 17α-[4-(4-(N,N-bis(2-chloroethyl)amino)phenyl)butanoyloxyacetoxy]-6α-methylpregn-4-ene-3,20-dione] | – | – | – | exhibit antitumour activity | exhibit antitumour activity | – | – | – | – | – | – | –
CC(=O)[C@@]1(OC(=O)COC(=O)c2cccc(N(CCCl)CCCl)c2)CC[C@H]2[C@@H]3CCC4=CC(=O)CC[C@]4(C)[C@H]3CC[C@@]21C [3:6, 17α-/3-(N,N-bis(2-chloroethyl)amino)benzoyloxyacetoxy/pregn-4-ene-3,20-dione] | – | – | – | exhibit antitumour activity | exhibit antitumour activity | – | – | – | – | exhibit antitumour activity | – | –
CC(=O)[C@@]1(OC(=O)COC(=O)CCCc2ccc(N(CCCl)CCCl)cc2)CC[C@H]2[C@@H]3C=C(Cl)C4=CC(=O)[C@@H]5C[C@@H]5[C@]4(C)[C@H]3CC[C@@]21C [3:11, 6-chloro-17α-[4-(4-(N,N-bis(2-chloroethyl)amino)phenyl)butanoyloxyacetoxy]-1α,2α-methylenepregna-4,6-diene-3,20-dione] | – | – | – | exhibit antitumour activity | exhibit antitumour activity | – | – | – | – | – | – | –
CC(=O)[C@@]1(OC(=O)COC(=O)Nc2ccc(N(CCCl)CCCl)cc2)CC[C@H]2[C@@H]3CCC4=CC(=O)CC[C@]4(C)[C@H]3CC[C@@]21C [Compound 5:1, 17α-/4-(N,N-bis(2-chloroethyl)amino)phenylcarbamoyloxyacetoxy/pregn-4-ene-3,20-dione] | > 250 | > 8 | 30 | exhibit antitumour activity | exhibit antitumour activity | – | – | – | 15.8 | – | 0/12 | 1
CC(=O)[C@@]1(OC(=O)COC(=O)[C@@H](N)Cc2ccc(N(CCCl)CCCl)cc2)CC[C@H]2[C@@H]3CCC4=CC(=O)CC[C@]4(C)[C@H]3CC[C@@]21C [3:12, 17-[(2S)-2-amino-3-(4-(N,N-bis(2-chloroethyl)amino)phenyl)propanoyloxyacetoxy]pregn-4-ene-3,20-dione] | – | – | – | exhibit antitumour activity | exhibit antitumour activity | – | – | – | – | – | – | –
CC(=O)[C@@]1(OC(=O)CNC(=O)CCCc2ccc(N(CCCl)CCCl)cc2)CC[C@H]2[C@@H]3CCC4=CC(=O)CC[C@]4(C)[C@H]3CC[C@@]21C [Compound 4:1, 17α-/4-(4-(N,N-bis(2-chloroethyl)amino)phenyl)butanoylaminoacetoxy/pregn-4-ene-3,20-dione] | > 250 | > 2 | 125 | exhibit antitumour activity | exhibit antitumour activity | – | – | – | 1.1 | – | – | –
